In ChEMBL document CHEMBL1127649, “Protein kinase C. Modeling of the binding site and prediction of binding constants” (J Med Chem, 1994):

Target: Protein kinase C alpha type (Homo sapiens, UniProt P17252)
Experiment: Binding affinity (Ki) towards Protein kinase C

SMILES | Ki
CCCCCCCCCCC/C=C1/C(=O)O[C@@H](CO)[C@@]12CCC(=O)O2 | 13.6 µM
CCCCCCCCCCCCC1C(=O)O[C@@H](CO)[C@@]12CCC(=O)O2 (stereo partly specified) | 75.3 µM
CCCCCCCCCCC[C@@H]1C(=O)O[C@H]2[C@@H]1C(=O)O[C@@H]2CO | 27.8 µM
CCCCCCCCCCC(=O)O[C@@H]1CC(=O)O[C@H]1CO | 4.1 µM
CC(=O)O[C@@H]1CC(=O)O[C@H]1CO | > 1700 µM
CCCCCCCCCCCCCC(=O)C1CC(=O)O[C@H]1CO (stereo partly specified) | 2.5 µM
CCCCCCCCCCCC[C@@H]1C(=O)O[C@]2(CO)CC(=O)O[C@H]12 | 7.6 µM
CCCCCCCCCCCCCCCCCCC(=O)O[C@@H]1CC(=O)O[C@H]1CO | 8.7 µM
CCCCCCC(=O)O[C@@H]1CC(=O)O[C@H]1CO | 187 µM
CO[C@@H](CC[C@H](C)[C@H]1O[C@@]23CC(OC(=O)C[C@H]([C@@H](C)O)OC(=O)C[C@](O)(O2)[C@H](C)CC3(C)C)[C@@H]1C)c1cccc(O)c1 | 0.02 µM
CCCCCCCCCCC[C@H]1C(=O)O[C@@]2(CO)COC(=O)[C@@H]12 | 22 µM
CCCCCCCCCCC[C@@H]1C(=O)O[C@]2(CO)COC(=O)[C@H]12 | 7.7 µM
CCCCCCCCCCCCCC(=O)O[C@H]1CC(=O)O[C@H]1CO | 31 µM
CCCCCCCCCCCCCC(=O)OC[C@H](CO)OC(C)=O | 1.3 µM
CCCCCCCCCCCCCC(=O)O[C@@H]1CC(=O)O[C@@H]1CO | 300 µM
CCCCCCCCCCCCCC(=O)O[C@H]1CC(=O)O[C@@H]1CO | 5.3 µM
